Assay results published in paper PMC9146934 (Membranes, 2022).

Key:
Assay type in all cases: cell-based
[1] = target: T1, Vd-RDL2 GABAr (Varroa destructor, UniProt A0A3G3MDS2); assay: Two-electrode voltage-clamp of GABA-induced currents, Vd-RDL2 expressed in Xenopus laevis oocytes
T1 sequence (A0A3G3MDS2 20-661): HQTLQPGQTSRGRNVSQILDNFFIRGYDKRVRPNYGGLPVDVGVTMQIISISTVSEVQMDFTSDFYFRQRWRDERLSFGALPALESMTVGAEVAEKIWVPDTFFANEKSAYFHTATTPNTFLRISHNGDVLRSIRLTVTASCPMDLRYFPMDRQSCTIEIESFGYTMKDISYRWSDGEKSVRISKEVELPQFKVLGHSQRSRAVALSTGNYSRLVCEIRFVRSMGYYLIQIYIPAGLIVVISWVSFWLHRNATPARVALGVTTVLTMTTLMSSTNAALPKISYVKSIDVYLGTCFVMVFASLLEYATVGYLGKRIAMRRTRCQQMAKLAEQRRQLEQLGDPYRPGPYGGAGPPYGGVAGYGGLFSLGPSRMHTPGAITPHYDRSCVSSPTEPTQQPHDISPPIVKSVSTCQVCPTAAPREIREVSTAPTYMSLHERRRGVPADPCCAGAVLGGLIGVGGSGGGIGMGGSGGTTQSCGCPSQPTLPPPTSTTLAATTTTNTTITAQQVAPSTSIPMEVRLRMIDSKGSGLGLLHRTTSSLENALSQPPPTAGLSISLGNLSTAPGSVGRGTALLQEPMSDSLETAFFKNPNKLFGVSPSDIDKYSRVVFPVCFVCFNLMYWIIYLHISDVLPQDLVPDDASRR
Method: (§1) cRNAs were in vitro synthesized from linearized plasmids using the M-message M-machine transcription kit (Thermo Fisher, Waltham, MA USA) following the manufacturer’s instructions. The cRNA concentration was adjusted to 1 µg/µL. Preparation and injection of X. laevis oocytes were completed as previously described. The oocytes were injected with 30 nL of a solution containing the cRNA of interest. Injected oocytes were maintained at 19 °C in a survival solution containing (in mM): NaCl, 96; KCl, 2; CaCl2, 1.8; MgCl2, 1; Hepes, 5; Na-pyruvate, 2.5; and gentamycin, 0.025, pH = 7.2 with NaOH, renewed daily.
(§2) Expressed currents were recorded at room temperature using the two-electrode voltage-clamp method 1–3 days after injection. Electrodes were pulled from borosilicate glass (Warner, ref GC150T10) and filled with 3 M KCl. […] Drugs were applied using a gravity-driven perfusion system at a speed of 2 mL/min.
(§3) Oocytes were perfused with the following ND solution (in mM): NaCl, 96; KCl, 3; CaCl2, 0.5; MgCl2, 1; HEPES, 5, with pH set at 7.4 with NaOH at ~1 mL/min. The reversal potential of the Ap-RDL receptor was measured in solutions containing (in mM): NaCl, Na-acetate or TEACl (tetraethylammonium chloride), 100; HEPES, 5 with pH set at 7.4, with NaOH or TEAOH. […] Fipronil or picrotoxin were dissolved at the final concentrations from stock solutions in DMSO (dimethylsulfoxide) at 200 and 10 mM, respectively. The final DMSO concentration was always less than 0.2%.
(§4) With Rel.Cur. the current amplitude at each concentration relative to the current recorded in the absence of antagonist; IC50, the concentration for half-maximum inhibition, log ([Inhib]) the logarithm of the inhibitor concentration, and p a slope factor.
(§5) With t, the time of the recording; Rel.Cur., the current amplitude at each concentration relative to the current recorded in the absence of antagonist; Amp, the amplitude of the exponential, Tau Block, the time constant of the exponential, and R the residual non-inhibited current at the steady-state of the effects. The relative block (Rel.B) is estimated as 1-R expressed in %.

[2] = target: T2, Hs-α2β2γ2 GABA-A receptor (Homo sapiens, UniProt P18507+P47869+P47870); assay: cell-based
T2 construct: expressed in transfected cells; host or cells: Xenopus laevis oocytes (cRNA injection)
Method: as §1, §2, §3, §4, §5

[3] = target: T3, Vd-RDL1 GABAr (Varroa destructor, UniProt A0A343W7T5); assay: Two-electrode voltage-clamp of GABA-induced currents, Vd-RDL1 expressed in Xenopus laevis oocytes
T3 sequence (A0A343W7T5 35-585): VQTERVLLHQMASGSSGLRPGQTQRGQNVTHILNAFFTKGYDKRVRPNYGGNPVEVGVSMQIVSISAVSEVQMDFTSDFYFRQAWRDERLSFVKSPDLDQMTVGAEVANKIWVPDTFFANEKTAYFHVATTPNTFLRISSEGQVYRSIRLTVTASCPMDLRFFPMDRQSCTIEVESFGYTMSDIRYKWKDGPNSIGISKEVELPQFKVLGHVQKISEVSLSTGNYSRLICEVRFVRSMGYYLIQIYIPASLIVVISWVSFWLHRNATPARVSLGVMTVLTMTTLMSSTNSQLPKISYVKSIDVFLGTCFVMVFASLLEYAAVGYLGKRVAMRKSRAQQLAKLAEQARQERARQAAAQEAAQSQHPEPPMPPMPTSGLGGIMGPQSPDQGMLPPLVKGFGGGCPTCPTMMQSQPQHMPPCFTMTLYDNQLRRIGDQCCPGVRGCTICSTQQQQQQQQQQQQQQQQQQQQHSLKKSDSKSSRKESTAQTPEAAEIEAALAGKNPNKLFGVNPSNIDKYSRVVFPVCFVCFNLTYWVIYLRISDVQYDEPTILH
Method: as §1, §2, §3, §4, §5

[4] = target: T4, Vd-RDL3 GABAr (Varroa destructor, UniProt A0A343W7T7); assay: Two-electrode voltage-clamp of GABA-induced currents, Vd-RDL3 expressed in Xenopus laevis oocytes
T4 sequence (A0A343W7T7 31-591): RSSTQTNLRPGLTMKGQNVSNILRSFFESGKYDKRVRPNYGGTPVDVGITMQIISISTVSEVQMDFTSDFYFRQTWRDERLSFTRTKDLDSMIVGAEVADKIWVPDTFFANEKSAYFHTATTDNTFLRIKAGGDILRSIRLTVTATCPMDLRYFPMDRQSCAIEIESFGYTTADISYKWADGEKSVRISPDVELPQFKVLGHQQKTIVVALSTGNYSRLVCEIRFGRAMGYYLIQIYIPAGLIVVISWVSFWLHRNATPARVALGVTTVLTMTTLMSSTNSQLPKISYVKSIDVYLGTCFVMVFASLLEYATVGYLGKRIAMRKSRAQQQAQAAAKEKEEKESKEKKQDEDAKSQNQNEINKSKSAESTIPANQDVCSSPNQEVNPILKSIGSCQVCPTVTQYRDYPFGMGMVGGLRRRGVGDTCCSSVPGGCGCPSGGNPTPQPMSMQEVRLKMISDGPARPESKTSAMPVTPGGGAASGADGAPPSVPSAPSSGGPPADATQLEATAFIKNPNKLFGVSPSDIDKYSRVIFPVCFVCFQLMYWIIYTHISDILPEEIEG
Method: as §1, §2, §3, §4, §5

[5] = target: T5, Am-RDL GABAr (Apis mellifera, UniProt A0A8U0Y4W2); assay: Two-electrode voltage-clamp of GABA-induced currents, Am-RDL expressed in Xenopus laevis oocytes
T5 sequence (A0A8U0Y4W2 19-476): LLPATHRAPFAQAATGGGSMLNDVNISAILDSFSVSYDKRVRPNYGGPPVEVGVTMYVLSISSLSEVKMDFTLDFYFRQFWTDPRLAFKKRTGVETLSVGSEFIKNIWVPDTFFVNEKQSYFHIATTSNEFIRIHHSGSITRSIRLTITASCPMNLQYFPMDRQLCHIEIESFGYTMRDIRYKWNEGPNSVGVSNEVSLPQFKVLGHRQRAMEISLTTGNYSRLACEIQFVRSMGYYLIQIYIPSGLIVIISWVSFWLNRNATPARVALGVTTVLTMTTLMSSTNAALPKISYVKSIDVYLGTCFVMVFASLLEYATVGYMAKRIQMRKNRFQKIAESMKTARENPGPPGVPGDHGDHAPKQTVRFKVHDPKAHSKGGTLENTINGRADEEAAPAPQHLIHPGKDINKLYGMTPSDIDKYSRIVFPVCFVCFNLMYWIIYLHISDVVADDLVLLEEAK
Method: as §1, §2, §3, §4, §5

[6] = target: T6, Ap-RDL1 GABAr (Acyrthosiphon pisum, UniProt A0A385J708, C18R); assay: Two-electrode voltage-clamp of GABA-induced currents, Ap-RDL1 expressed in Xenopus laevis oocytes
T6 sequence (A0A385J708 33-567 C18R): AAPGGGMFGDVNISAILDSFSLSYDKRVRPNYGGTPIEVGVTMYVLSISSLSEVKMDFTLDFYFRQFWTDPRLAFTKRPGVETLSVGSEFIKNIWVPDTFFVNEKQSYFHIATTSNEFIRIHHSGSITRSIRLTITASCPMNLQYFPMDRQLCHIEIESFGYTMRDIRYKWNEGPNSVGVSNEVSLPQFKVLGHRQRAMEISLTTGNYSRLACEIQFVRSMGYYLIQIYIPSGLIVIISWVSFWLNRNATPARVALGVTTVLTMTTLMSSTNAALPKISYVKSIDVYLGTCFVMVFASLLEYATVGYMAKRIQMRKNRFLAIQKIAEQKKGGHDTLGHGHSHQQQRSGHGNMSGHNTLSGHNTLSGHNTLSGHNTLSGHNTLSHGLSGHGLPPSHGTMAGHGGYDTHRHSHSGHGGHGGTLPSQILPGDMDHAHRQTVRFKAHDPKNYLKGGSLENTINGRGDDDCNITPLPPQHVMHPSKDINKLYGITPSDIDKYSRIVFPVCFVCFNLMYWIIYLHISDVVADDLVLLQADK
Method: as §1, §2, §3, §4, §5

[7] = target: T7, Hs-α4β2γ2 GABA-A receptor (Homo sapiens, UniProt P18507+P47870+P48169); assay: Two-electrode voltage-clamp of GABA-induced currents, Hs-α4β2γ2 expressed in Xenopus laevis oocytes
T7 construct: expressed in transfected cells; host or cells: Xenopus laevis oocytes (cRNA injection; α4 in pcDNA3.1(+))
Method: as §1, §2, §3, §4
as §5, with “The relative block (Rel.B) is estimated as 1-R expressed in %.” left out

[8] = peak current, oocytes clamped at −60 mV
[9] = dieldrin 1 µM, GABA 100 µM, mono-exponential fit

T2 sequence (P47869 29-451): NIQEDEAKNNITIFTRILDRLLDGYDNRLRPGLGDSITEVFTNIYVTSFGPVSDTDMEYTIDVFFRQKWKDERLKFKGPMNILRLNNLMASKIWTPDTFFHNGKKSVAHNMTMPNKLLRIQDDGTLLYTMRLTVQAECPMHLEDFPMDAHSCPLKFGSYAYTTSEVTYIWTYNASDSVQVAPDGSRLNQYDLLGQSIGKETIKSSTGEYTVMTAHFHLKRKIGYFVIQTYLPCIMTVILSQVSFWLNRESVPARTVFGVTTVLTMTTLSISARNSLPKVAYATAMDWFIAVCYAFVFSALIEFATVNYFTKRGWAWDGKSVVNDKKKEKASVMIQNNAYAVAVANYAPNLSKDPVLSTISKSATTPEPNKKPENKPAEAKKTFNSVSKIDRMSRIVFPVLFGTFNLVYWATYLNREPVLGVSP
T2 sequence (P47870 25-512 limits assumed): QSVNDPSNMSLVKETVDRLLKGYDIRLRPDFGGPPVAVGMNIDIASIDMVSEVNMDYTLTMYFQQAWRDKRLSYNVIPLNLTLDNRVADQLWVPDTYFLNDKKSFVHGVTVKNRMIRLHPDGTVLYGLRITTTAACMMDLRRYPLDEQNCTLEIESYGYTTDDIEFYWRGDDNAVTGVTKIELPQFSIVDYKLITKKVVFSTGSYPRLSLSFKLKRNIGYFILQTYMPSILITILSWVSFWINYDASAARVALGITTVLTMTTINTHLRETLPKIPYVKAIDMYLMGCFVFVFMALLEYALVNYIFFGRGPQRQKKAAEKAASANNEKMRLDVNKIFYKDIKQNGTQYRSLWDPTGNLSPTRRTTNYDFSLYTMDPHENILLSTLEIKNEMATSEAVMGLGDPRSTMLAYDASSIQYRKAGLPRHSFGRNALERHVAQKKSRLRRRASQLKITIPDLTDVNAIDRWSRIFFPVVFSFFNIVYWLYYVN
T2 sequence (P18507 40-475): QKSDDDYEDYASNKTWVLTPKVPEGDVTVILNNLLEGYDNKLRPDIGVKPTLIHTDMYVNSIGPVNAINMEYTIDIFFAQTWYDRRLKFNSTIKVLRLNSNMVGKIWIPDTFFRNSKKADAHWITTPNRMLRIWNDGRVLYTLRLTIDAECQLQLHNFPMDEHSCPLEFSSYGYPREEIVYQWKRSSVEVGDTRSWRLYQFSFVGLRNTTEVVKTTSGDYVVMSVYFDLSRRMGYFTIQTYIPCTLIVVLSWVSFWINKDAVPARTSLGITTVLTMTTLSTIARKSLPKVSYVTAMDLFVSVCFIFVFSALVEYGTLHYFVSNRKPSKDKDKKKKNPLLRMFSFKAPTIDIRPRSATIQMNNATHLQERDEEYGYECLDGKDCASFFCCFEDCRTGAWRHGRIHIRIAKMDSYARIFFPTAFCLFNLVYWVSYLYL
T7 sequence (P48169 36-554): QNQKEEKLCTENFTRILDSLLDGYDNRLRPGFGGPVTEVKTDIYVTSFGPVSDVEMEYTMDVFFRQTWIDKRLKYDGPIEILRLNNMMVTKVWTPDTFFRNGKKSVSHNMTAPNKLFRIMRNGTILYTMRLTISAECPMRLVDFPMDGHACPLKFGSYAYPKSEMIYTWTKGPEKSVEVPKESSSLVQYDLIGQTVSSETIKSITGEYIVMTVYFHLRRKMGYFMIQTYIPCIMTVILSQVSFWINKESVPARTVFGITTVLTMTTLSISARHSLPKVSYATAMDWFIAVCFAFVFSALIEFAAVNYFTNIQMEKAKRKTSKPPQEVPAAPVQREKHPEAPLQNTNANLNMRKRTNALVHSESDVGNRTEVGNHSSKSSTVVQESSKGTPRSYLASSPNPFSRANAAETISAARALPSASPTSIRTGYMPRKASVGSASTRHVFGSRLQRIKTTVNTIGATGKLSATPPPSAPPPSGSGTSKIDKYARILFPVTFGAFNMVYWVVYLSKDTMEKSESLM
T7 sequence (P47870 25-512 limits assumed): as the sequence (P47870 25-512 limits assumed) above
T7 sequence (P18507 40-475): as the sequence (P18507 40-475) above

`NCCCC(=O)O` [GABA, γ-aminobutyric acid] was tested, and the “p (slope factor) of GABA dose–response curve” value (“p (slope factor)” for short) ([1]; logistic fit) was 1.8 ± 0.2, the “p (slope factor)” value [2] was 1.4 ± 0.1 and the “p (slope factor)” value ([3]; logistic fit) was 2.3 ± 0.2. For the same molecule, the EC50 [3, 8] was 269 ± 41 µM, the “p (slope factor)” value ([4]; logistic fit) was 2.3 ± 0.1 and the EC50 [4, 8] was 43.1 ± 10.4 µM. For the same molecule, the EC50 [5] was 19.3 ± 3.5 µM, the “p (slope factor)” value ([5]; logistic fit) was 2.1 ± 0.2 and the “p (slope factor)” value ([6]; logistic fit) was 2.4 ± 0.3. The “p (slope factor)” value ([7]; logistic fit) was 1.4 ± 0.2.

With `ClC1=C(Cl)[C@]2(Cl)[C@@H]3[C@@H]4C[C@@H]([C@H]5O[C@@H]45)[C@@H]3[C@@]1(Cl)C2(Cl)Cl` [dieldrin] the “Rel.B (steady-state relative block)” value ([1]; dieldrin 1 µM, GABA 100 µM) was 51 ± 1%, the “Tau-Block (time constant of block)” value [1, 9] was 2 to 6 min and the “Rel.B (steady-state relative block)” value ([2]; dieldrin 1 µM, GABA 300 µM) was 80–91%. For the same molecule, the “Tau-Block (time constant of block)” value ([2]; dieldrin 1 µM, GABA 300 µM, mono-exponential fit) was 2 to 6 min, the “Rel.B (steady-state block)” value ([3]; dieldrin 1 µM, GABA 300 µM) was about 20% and the “Tau-Block (time constant of block)” value ([3]; dieldrin 1 µM, GABA 300 µM, hard to evaluate, fitted) was “around 55 min”. The “Rel.B (steady-state relative block)” value ([4]; dieldrin 1 µM, GABA 100 µM) was 80–91%, the “Tau-Block (time constant of block)” value [4, 9] was 2 to 6 min and the “Rel.B (steady-state relative block)” value ([5]; dieldrin 1 µM, GABA 100 µM) was 80–91%. The “Tau-Block (time constant of block)” value [5, 9] was 2 to 6 min, the “time to reach steady-state inhibition during successive pulses at the same dose” value ([6]; Figure 6B, dieldrin 1 µM, GABA 50 µM) was “more than 10 min” and the “Tau-Block (time constant of block)” value ([6]; dieldrin 1 µM, repetitive GABA application, mono-exponential fit) was 2 to 6 min. For the same molecule, the “Rel.B (steady-state relative block)” value ([7]; dieldrin 1 µM, GABA 100 µM) was 80–91% and the “Tau-Block (time constant of block)” value [7, 9] was 2 to 6 min.
